Laboratory results published in patent EP0308781A2, “Antimycotic preparations” (BAYER AG, priority 1987, dated 1989).

Test system: Candida-Zellen
Test: Antimycotic in vivo efficacy (oral) in mouse candidosis
Parameters: species or system Mäuse vom Typ SPF-CF1; key to Wirkung: + + + + +: sehr gute Wirkung = 90 % Überlebende am 6.Tag.p.i.; + + + +: gute Wirkung = 80 % Überlebende am 6.Tag.p.i.; + + +: Wirkung = 60 % Überlebende am 6.Tag.p.i.; + +: schwache Wirkung = 40 % Überlebende am 6.Tag.p.i.; +: Spur Wirkung = unter 40 % Überlebende am 6. Tag p.i.; k.W.: kein Unterschied zur unbehandelten Infektionskontrolle
Conditions: for Wirkung: mice infected i.v. with 1 - 2 x 10^6 Candida cells, oral treatment with 10 - 100 mg/kg each, one hour before and seven hours after infection, survivors on day 6 p.i.
Description: Antimykotische in-vivo-Wirksamkeit (oral) bei Mäusecandidose
Mäuse vom Typ SPF-CF1 wurden intravenös mit […] logarithmisch wachsenden Candida-Zellen, die in physiologischer Kochsalzlösung suspendiert werden, infiziert. Eine Stunde vor und sieben Stunden nach der Infektion werden die Tiere mit jeweils 10 - 100 mg/kg Körpergewicht der Präparate oral behandelt.
Unbehandelte Tiere starben 3 bis 6 Tage post infektionem. Die Überlebensrate am 6.Tag post infektionem betrug bei unbehandelten Kontrolltieren etwa 5 %.

SMILES | Wirkung | Wirkung (comparison with known compounds) (oral, mouse candidosis, statement in words, compared with (A) and (B))
OC(Cn1cncn1)(c1ccccc1)C1(F)CC1 (stereo not shown) [(B)] | k.W. | 
OC(Cc1ccc(F)cc1)(Cn1cncn1)C1(Cl)CC1 (stereo not shown) [(I-1), 1-(4-Fluorphenyl)-2-(1-chlor-cyclopropyl)-3-(1,2,4-triazol-1-yl)-propan-2-ol] | + + + + + (sehr gute Wirkung = 90 % Überlebende am 6.Tag.p.i.) | bessere Wirkung
OC(Cn1cncn1)(c1ccc(Cl)cc1)C1(F)CC1 (stereo not shown) [(A)] | k.W. | 
